Entries after “also recorded” stand apart in the source; their conditions may differ. Counter-ions that a name gives are not always drawn. Like-named read-outs stand apart in the source and are kept apart here.
Key:
Format in all cases: in vivo
S100-positive cells = test: Rat retinal ischemia model: S100-positive cell number and area (S100 staining); settings: for Effect on increases in S100 positive areas / Effect on changes in number of S100-positive cells: result in words; for Effect on changes in number of S100-positive cells: A2 and A4 points; for inhibition at 10 mg/kg: Rattus norvegicus, S100, iv; for Area of S100 positive cells, A1 (mean): point A1; for Area of S100 positive cells, A2 (mean) / Number of S100 positive cells, A2 (mean): point A2; for Area of S100 positive cells, A3 (mean): point A3; for Area of S100 positive cells, A4 (mean) / Number of S100 positive cells, A4 (mean): point A4 (optic nerve)
Procedure: (§1) A 27 G injection needle (4) was attached to an end of the tube. A part about 20 cm below the bottom end of the perfusion line was attached to a supporting bar and the part was lightly fixed by a stand.
(§2) A rat (Crj:CD(SD) IGS, from CHARLES RIVER LABORATORIES JAPAN, Inc.) was anesthetized with pentobarbital sodium (40 mg/kg, i.p.) and the pupil of the eye to be operated were preliminarily dilated by using a mydriasis agent (MYDRIN P; manufactured by SANTEN PHARMACEUTICAL Co., Ltd.).
(§3) Before the surgical operation, the bottle (1) was held up so that the water surface in the perfusion bottle was located on 163.5 cm above the rat eyes in the state of closing the perfusion line (loading an intraocular pressure of […]). After opening the top end, the perfusion line was connected to a differential pressure transducer and the height was adjusted to give a predetermined pressure, followed by closing the line. With confirming the mydriasis under a stereoscopic microscope, the stopper of the perfusion line was loosened and the solution was dropped little by little from the needle point. As the cornea was tightly sandwiched between tweezers and an injection needle (4), the injection needle (4) was punctured into the anterior chamber (5) from the nasal side. Next, the perfusion line was opened to load pressure in the anterior chamber (5). After loading the ischemia for 60 minutes, the injection needle (4) was taken off and the animals were awaken out of the anesthesia with keeping the body temperature at 37° C. In the sham-ischemia group, an injection needle was punctured into the anterior chamber from the nasal side in the state of closing the perfusion line, followed by taking off after 60 minutes.
(§4) (2R)-2-propyloctanoic acid was intravenously administered via the tail vein in a dose of 10 mg/mL/kg once a day for 7 days from the day of the ischemic operation. Dizocilpine maleate ((+)-MK-801 maleate, hereinafter referred to simply as “MK-801”) which is a positive control compound was intravenously administered via the tail vein in a dose of 10 mg/mL/kg once alone 30 minutes before the ischemic operation.
(§5) A rat was anesthetized with pentobarbital sodium (40 mg/kg, i.p.) and fixed at the dorsal position. After incising the subcostal skin, with grasping the xiphoid process with tweezers or a kocher, the upper end of the anterior abdominal muscle was horizontally incised with scissors. Next, after reversing the chest wall, the xiphoid process was grasped with a kocher or the chest wall was grasped with a kocher to expose the heart. The heart was grasped with tweezers and the left ventricular was incised with scissors. Then, the front end of a disposable oral probe for mouse connected to a blood transfusion tube was introduced from the left ventricular to the aorta and the end of the oral probe was grasped with a clamp. The atrial auricula was incised and perfused with physiological saline containing heparin (10 U/mL). The blood transfusion tube and the disposable oral probe for mouse were replaced with fresh ones and perfusion with a 10% neutral formalin buffer was conducted in the same manner as described above for fixation. After fixing, both eyes were taken out, stored in a sample bottle filled with the 10% neutral formalin buffer and subjected to the following evaluation.
(§6) An ischemic eye was excised, embedded and sliced. Next, hematoxylin-eosin staining, GFAP (glial fibrillary acidic protein) staining and S100 staining by the methods as shown in the following (5-2) to (5-4) were carried out.
An anti-S 100 rabbit antibody (cat No. Z0311, DAKO) was used. […]

GFAP-positive cells = test: Rat retinal ischemia model: GFAP-positive cell number and area (GFAP staining); settings: for Effect on changes in number of GFAP-positive cells / Effect on increases in GFAP positive areas: result in words; for inhibition at 10 mg/kg: Rattus norvegicus, iv; for Number of GFAP positive cells, A2 (mean): point A2 (optic nerve papilla); for Area of GFAP positive cells, A2 (mean): point A2; for Area of GFAP positive cells, A3 (mean) / Number of GFAP positive cells, A3 (mean): point A3; for Area of GFAP positive cells, A4 (mean): point A4 (optic nerve)
Procedure: as §1, §2, §3, §4, §5, §6
An anti-GFAP rabbit antibody (cat No. Z0334, DAKO) was used. […]

[1] = Single intravenous administration toxicity test in dogs; settings: 100 mg/kg, single i.v.
Text: Since toxicity of (2R)-2-propyloctanoic acid, a salt thereof or prodrug thereof is low, it can be considered to be sufficiently safe for medicinal uses.

GCL cells = test: Rat retinal ischemia model: number of GCL cells (HE staining); settings: 10 mg/kg i.v.; for Effect on decrease in number of optic nerve cells / optic nerve cell death caused by ischemia: result in words; for Number of GCL cells, A1 (mean): retina point A1, 2 mm from optic nerve papilla; for Number of GCL cells, A1 (mean) / Number of GCL cells, A3 (mean) / Number of GCL cells, A1 + A3 (mean): 60 min ischemia; for Number of GCL cells, A3 (mean): retina point A3, 2 mm from optic nerve papilla; for Number of GCL cells, A1 + A3 (mean): sum of A1 and A3; for Inhibitory rate of decrease in number of optic nerve cells, A1+A3: sum of A1 and A3 data
Procedure: as §1, §2, §3, §4, §5, §6
(1) deparaffinization; (2) water washing; (3) nuclear staining with hematoxylin for 20 minutes; (4) water washing and color development for 10 minutes; (5) eosin for 3 minutes; and (6) dehydration→penetration→enclosure.
Using HE-stained samples thus obtained, GCL cells at two points (A1, A3; refer to FIG. 2) on the retina which are 2 mm apart from the optic nerve papilla (A2) were counted (cells/mm^2).

CCCCCC[C@@H](CCC)C(=O)O [(2R)-2-propyloctanoic acid]
Effect on increases in S100 positive areas (S100-positive cells; 10 mg/kg i.v.): showed inhibitory effects
Effect on changes in number of S100-positive cells (S100-positive cells; 10 mg/kg i.v.): showed an inhibitory effect
inhibition at 10 mg/kg (S100-positive cells; point A4, 10 mg/kg i.v., read-out: Inhibitory rate of increase in S100 positive area at point A4): 93.9%
inhibition at 10 mg/kg (S100-positive cells; point A4, 10 mg/kg i.v., read-out: Inhibitory rate of increase in number of S100-positive cells at point A4): 31.2%
Area of S100 positive cells, A1 (mean) (S100-positive cells; 10 mg/kg i.v.): 1.9 % AREA
Area of S100 positive cells, A2 (mean) (S100-positive cells; 10 mg/kg i.v.): 3.5 % AREA
Number of S100 positive cells, A2 (mean) (S100-positive cells; 10 mg/kg i.v.): 295.4 cells/mm^2
Area of S100 positive cells, A3 (mean) (S100-positive cells; 10 mg/kg i.v.): 1.6 % AREA
Area of S100 positive cells, A4 (mean) (S100-positive cells; 10 mg/kg i.v.): 3.3 % AREA
Number of S100 positive cells, A4 (mean) (S100-positive cells; 10 mg/kg i.v.): 307.7 cells/mm^2
Effect on changes in number of GFAP-positive cells (GFAP-positive cells; 10 mg/kg i.v.): showed inhibitory effects
Effect on increases in GFAP positive areas (GFAP-positive cells; 10 mg/kg i.v.): showed inhibitory effects
inhibition at 10 mg/kg (GFAP-positive cells; point A1, 10 mg/kg i.v., read-out: Inhibitory rate of change in number of GFAP-positive cells at point A1): 69%
inhibition at 10 mg/kg (GFAP-positive cells; point A1 as printed, 10 mg/kg i.v., read-out: Inhibitory rate of increase in GFAP positive area at the point A1): 87.8%
Area of GFAP positive cells, A1 (mean) (GFAP-positive cells; point A1, 10 mg/kg i.v.): 4.2 % AREA
Number of GFAP positive cells, A1 (mean) (GFAP-positive cells; point A1, 10 mg/kg i.v.): 52.6 cells/mm^2
Number of GFAP positive cells, A2 (mean) (GFAP-positive cells; 10 mg/kg i.v.): 317.9 cells/mm^2
Area of GFAP positive cells, A2 (mean) (GFAP-positive cells; 10 mg/kg i.v.): 10.1 % AREA
Area of GFAP positive cells, A3 (mean) (GFAP-positive cells; 10 mg/kg i.v.): 4.2 % AREA
Number of GFAP positive cells, A3 (mean) (GFAP-positive cells; 10 mg/kg i.v.): 52.9 cells/mm^2
Area of GFAP positive cells, A4 (mean) (GFAP-positive cells; 10 mg/kg i.v.): 16.8 % AREA
Lethality after single intravenous administration [1]: no fatal case was observed
Effect on decrease in number of optic nerve cells / optic nerve cell death caused by ischemia (GCL cells): showed inhibitory effects; also recorded: remarkable effect of inhibiting optic nerve cell death
Number of GCL cells, A1 (mean) (GCL cells): 116.4 cells/mm^2
Number of GCL cells, A3 (mean) (GCL cells): 129.9 cells/mm^2
Number of GCL cells, A1 + A3 (mean) (GCL cells): 246.3 cells/mm^2
Inhibitory rate of decrease in number of optic nerve cells, A1+A3 (GCL cells): 52.1%

C[C@]12N[C@H](Cc3ccccc31)c1ccccc12 [MK-801, Dizocilpine maleate, reference compound]
Effect on increases in S100 positive areas (S100-positive cells; 10 mg/kg i.v.): showed inhibitory effects
Effect on changes in number of S100-positive cells (S100-positive cells; 10 mg/kg i.v.): showed an inhibitory effect exclusively on the increase in the number of S100-positive cells at the A2 point
inhibition at 10 mg/kg (S100-positive cells; read-out: Inhibitory rate of increase in S100 positive area at point A4): 51.2%
Area of S100 positive cells, A1 (mean) (S100-positive cells; 10 mg/kg i.v.): 1.9 % AREA
Area of S100 positive cells, A2 (mean) (S100-positive cells; 10 mg/kg i.v.): 3.8 % AREA
Number of S100 positive cells, A2 (mean) (S100-positive cells; 10 mg/kg i.v.): 212.9 cells/mm^2
Area of S100 positive cells, A3 (mean) (S100-positive cells; 10 mg/kg i.v.): 2.1 % AREA
Area of S100 positive cells, A4 (mean) (S100-positive cells; 10 mg/kg i.v.): 6.8 % AREA
Number of S100 positive cells, A4 (mean) (S100-positive cells; 10 mg/kg i.v.): 600.2 cells/mm^2
Effect on changes in number of GFAP-positive cells (GFAP-positive cells; 10 mg/kg i.v.): showed inhibitory effects
Effect on increases in GFAP positive areas (GFAP-positive cells; 10 mg/kg i.v.): showed inhibitory effects
inhibition at 10 mg/kg (GFAP-positive cells; read-out: Inhibitory rate of change in number of GFAP-positive cells at point A1): 42.9%
inhibition at 10 mg/kg (GFAP-positive cells; read-out: Inhibitory rate of increase in GFAP positive area at the point A1): 78.3%
Area of GFAP positive cells, A1 (mean) (GFAP-positive cells; point A1, 10 mg/kg i.v.): 3.4 % AREA
Number of GFAP positive cells, A1 (mean) (GFAP-positive cells; point A1, 10 mg/kg i.v.): 47.8 cells/mm^2
Number of GFAP positive cells, A2 (mean) (GFAP-positive cells; 10 mg/kg i.v.): 275.3 cells/mm^2
Area of GFAP positive cells, A2 (mean) (GFAP-positive cells; 10 mg/kg i.v.): 11.0 % AREA
Area of GFAP positive cells, A3 (mean) (GFAP-positive cells; 10 mg/kg i.v.): 3.6 % AREA
Number of GFAP positive cells, A3 (mean) (GFAP-positive cells; 10 mg/kg i.v.): 56.8 cells/mm^2
Area of GFAP positive cells, A4 (mean) (GFAP-positive cells; 10 mg/kg i.v.): 17.9 % AREA
Effect on decrease in number of optic nerve cells / optic nerve cell death caused by ischemia (GCL cells): showed inhibitory effects
Number of GCL cells, A1 (mean) (GCL cells): 125.1 cells/mm^2
Number of GCL cells, A3 (mean) (GCL cells): 134.9 cells/mm^2
Number of GCL cells, A1 + A3 (mean) (GCL cells): 260.0 cells/mm^2
Inhibitory rate of decrease in number of optic nerve cells, A1+A3 (GCL cells): 59.5%
